Experimental findings from patent publication US20230097992A1, “BIVALENT EGF FUSION TOXINS” (The Regents of the University of Colorado, a body corporate, priority 2020, published 2023) are described below.

Data set [1] concerns human EGFR-positive HNSCC cell line UMSCC47. The data set can be described thus: CellTiter-Glo Luminescent Cell Viability Assay, UMSCC47. The following applies: read-out: IC50 to HNSCC cell lines (Erlotinib). In kind it is cell-based. The protocol:
(§1) FIG. 9 presents the data from in vitro efficacy analysis of the human EGF fusion toxins against human EGFR-positive HNSCC cell lines using CellTiter-Glo® Luminescent Cell Viability Assay (Promega) Y-axis: inhibition rate of the cell viability by determining the number of viable cells based on the quantification of the ATP present. X-axis: plated fusion toxin concentration. Cycloheximide (1.25 mg/mL) was used as a positive control. The negative control contained cells without fusion toxin. Data were from three individual experiments for each HNSCC cell line. Error bars indicate SD.
(§2) Y-axis: inhibition rate of the cell viability by determining the number of viable cells based on the quantification of the ATP present. […] Cycloheximide (1.25 mg/mL) was used as a positive control. […]
(§3) In vitro efficacy analysis of the human EGF fusion toxins (mEGF-IT and bEGF-IT) to the human HNSCC tumor cell lines was performed using CellTiter-Glo® Luminescent Cell Viability Assay (Promega Corporation, Madison, Wis.) as described previously (Zheng et al. (2017), Mol. Oncol. 11, 584-594, which is hereby incorporated by reference in its entirety). This cell viability assay measures the luminescence produced because of ATP production from metabolically active cells. […] The luminescence signals were recorded using BioTek Synergy LX Multi-Mode Reader.
(§4) IC50 was determined using nonlinear regression (curve fit) of Prism. […]

Data set [2] deals with human EGFR-positive HNSCC cell line Vu1365. Nature of the data set: CellTiter-Glo Luminescent Cell Viability Assay, Vu1365. In kind it is cell-based. The settings on record: read-out: IC50 to HNSCC cell lines (Erlotinib). The protocol: as §1, §2, §3, §4
(In general: ATP-based viability assays read luminescence as a measure of living cells.)

In data set [3] the test system is 14 human EGFR-positive HNSCC cell lines. Nature of the data set: CellTiter-Glo in vitro efficacy, all examined HNSCC cell lines together. It is filed as cell-based.
Protocol: Cycloheximide (1.25 mg/mL) was used as a positive control. […] Data were from three individual experiments for each HNSCC cell line.
In vitro efficacy of the human EGF fusion toxins against HNSCC cell lines were assessed using CellTiter-Glo® Luminescent Cell Viability Assay.
Data set [4] has as its system human EGFR-positive HNSCC cell line HN6. The data set can be described thus: CellTiter-Glo Luminescent Cell Viability Assay, HN6. It is filed as cell-based. The following applies: HN-6, read-out: IC50 to HNSCC cell lines (Erlotinib). The protocol:
as §1, §2, §3, §4

In data set [5] the test system is EGFR+ HNSCC cell line, Cal27. The data set can be described thus: Blocking of anti-human EGFR mAb binding to Cal27 by nonbiotinylated fusion toxin (flow cytometry). The settings on record: nonbiotinylated fusion toxin as competitor. The text has this:
FIGS. 3C-D present representative data from analysis of the blocking of anti-human EGFR mAb binding to human EGFR-expressing (EGFR^+) HNSCC Cal27 by mEGF-IT and bEGF-IT using flow cytometry. FIG. 3C presents representative flow cytometry data, and FIG. 3D presents the percentage inhibition of anti-human EGFR mAb binding to Cal27 cells plotted versus the concentration of binding competitor (mono-EGF-IT or bi-EGF-IT). The data are representative of three individual experiments.
The biotinylated EGF fusion toxins also dose-dependently bound to all other examined HNSCC cell lines (FIG. 3, 11, and Table 4). […] One limitation to the flow cytometry binding assay is that the extent of biotinylation should be similar between the constructs. Otherwise, it could be hard to attribute the differences in fluorescence intensities to a change in affinity. To overcome this limitation, a blocking assay using nonbiotinylated mono-EGF-IT or bi-EGF-IT to block the binding of the anti-human EGFR mAb to the EGFR+ HNSCC cell line, Cal27, was performed (Wang et al, 2007, Bioconjug Chem 18: 944-955). […] The 14 examined HNSCC cell lines represent the main HNSCC cell lines used in the research community of the head and neck cancers.
(In general: A flow cytometer gives signals particle by particle.)

In data set [6] the test system is 14 EGFR+ HNSCC cells lines. Nature of the data set: Flow cytometry binding, all 14 EGFR+ HNSCC cell lines together. The settings on record: mean over the 14 EGFR+ HNSCC cell lines. On the set-up: species or system human.
For the next data set, the system named is NSG mice. The data set can be described thus: In vivo off-target toxicity in NSG mice. The text has this:
FIGS. 12A-C presents representative images of necropsy results for NSG mice treated with mono-EGF-IT or bi-EGF-IT without tumor cell injection. Mice were euthanized on day 13 after the first injection of the fusion toxins. The images show representative gross changes observed in the ear (FIG. 12A), liver (FIG. 12C) and gastrointestinal tract of a representative NSG mouse treated with mono-EGF-IT compared to a representative NSG mouse treated with bi-EGF-IT.
Mono-EGF-IT (mEGF-IT), bEGF-IT, or DT390 was intraperitoneally injected (IP) starting at day 4 at 50 μg/kg, once daily for 10 consecutive days. […] The injected animals were observed daily for signs and symptoms of illness and scored at least twice weekly based on the parameters as previously reported (Peraino et al. (2013), J. Immunol. Methods 398-399, 33-43, which is hereby incorporated by reference in its entirety; Wang et al., 2015). The animals were humanely euthanized when the score exceeded the limit or the animal lost more than 15% of its pre-injection body weight. In addition, to assess whether the fusion toxins are toxic to the animals, NSG mice injected with the fusion toxins only were also included as control.
The main side effects of targeting EGFR are caused by off-target effects, because EGFR is expressed in many healthy tissues, include skin, liver, and gastrointestinal tract (Widakowich et al., (2007), Oncologist, 12, 1443-1455). […] To further assess these toxic effects, another in vivo toxicity study in non-tumor-bearing mice was performed. NSG mice were treated with mono-EGF-IT or bi-EGF-IT, without tumor cell injection.

Setting [7] is: non-tumor-bearing NSG mice, 13 days after the first injection.

Broadly, the IC50 is the concentration that inhibits the measured activity by half. The term Kd denotes the constant that tells how readily two partners part at equilibrium.

Consider `C#Cc1cccc(Nc2ncnc3cc(OCCOC)c(OCCOC)cc23)c1` [Erlotinib], for which the IC50 in data set [1] was determined as 4.12 µM; in data set [2], 1.54 µM; in data set [4], 0.94 µM. Moreover, the “in vitro efficacy against the examined HNSCC cell lines” value in data set [3] is recorded as “effective in vitro against all 14 examined HNSCC tumor cell lines”.

With “Bi-EGF IT: DT390 joined by G4S to two human EGF domains linked by (G4S)3, C-terminal 6×His tag; SEQ ID NO: 10”, in data set [5], the “blocking of anti-human EGFR mAb binding to Cal27 (result in words)” value is “bound significantly stronger to Cal27 cells compared with mono-EGF-IT”. Moreover, binding in data set [6] was characterised by a dissociation constant (Kd) of 0.00505 µM. Also, the “adverse effects observed in treated mice” value in the data set with NSG mice (mice of the efficacy studies) is reported as “these adverse effects were not observed”. Also, the “general condition and skin” value in the data set on NSG mice (non-tumor-bearing NSG mice) is “but not bi-EGF-IT, were again generally unhealthy and lethargic with skin rashes”. Also, in the data set with NSG mice (setting [7]), the “necropsy, gastrointestinal tract” value was “normal appearance of the gastrointestinal tract” and the “necropsy, liver” value is “no significant abnormal findings”.
